Counter-ions that a name gives are not always drawn.
Target: hROMK (hKir1.1) (Homo sapiens (Human), UniProt P48048)
Experiment: Thallium Flux Assay (ROMK channel functional thallium flux, FLIPR-Tetra)
Type: cell-based
Details: HEK293 cells stably expressing hROMK (hKir1.1); unit not given in Table 4 (IC50 potencies less than 1 μM); read-out: ROMK TI IC50
Protocol: Cell Culture Conditions—HEK293 cells stably expressing hROMK (hKir1.1) were grown at 37° C. in a 10% CO2 humidified incubator in complete growth media: Dulbecco's Modified Eagle Medium supplemented with non-essential amino acids, Penicillin/Streptomycin/Glutamine, G418 and FBS. At >80% confluency, the media was aspirated from the flask and rinsed with 10 mL calcium/magnesium-free PBS. […] To dislodge the cell, the side of the flask was gently banged with one's hand. The cells completely titrated and then the cells were transferred to 25 mL complete media, centrifuged at 1,500 rpm for 6 min followed by resuspension in complete growth media and determine cell concentration. […] Under ideal growth conditions and appropriate tissue culture practices, this cell line is stable for 40-45 passages.
FluxOR Kit Components (Invitrogen F10017)
• FluxOR™ Reagent (Component A) • FluxOR™ Assay Buffer (Component B)—10× Concentrate • PowerLoad™ Concentrate (Component C)—100× Concentrate • Probenecid (Component D)—Lyophilized sample is kept at −20° C. Water soluble, 100× after solubilization in 1 mL water. […] Store at 4° C. • Thallium sulfate (Tl2SO4) Concentrate (Component G)—50 mM in water. […] Can be stored at room temperature • Stimulant Buffer (prepared at 5× final concentration in 1× FluxOR™Chloride-Free Buffer): 7.5 mM thallium sulfate and 0.75 mM potassium sulfate (to give a final assay concentration of 3 mM Thallium/0.3 mM potassium). Store at 4° C. when not in use. If kept sterile, this solution is good for months.
• 1. Seed HEK-hKir1.1 cells (50 μl at 20,000 cells/well) in 384-well PDL coated Microplates • 2. Allow cells to adhere overnight in humidified 37° C./10% CO2 incubator • 3. Completely remove cell growth media from microplate and replace with 25 μl loading buffer • 4. Incubate Microplate at room temperature, protected form light, for 90 min • 5. Remove loading buffer and replace with 25 μl 1× Assay Buffer±test compound. • 6. Incubate microplate at room temperature, protected from light, for 30 min • 7. […] Excitation=400 nm, Emission=460 & 580 nm. Collect data for ˜10 min.
Data Calculation—The fluorescence intensity of wells containing 3 μM of a standard control ROMK inhibitor of the present invention was used to define the ROMK-sensitive component of thallium flux. Fluorescence in the presence of test compounds was normalized to control values to provide % fluorescence change.

Sequence of hROMK (hKir1.1) (P48048 whole entry): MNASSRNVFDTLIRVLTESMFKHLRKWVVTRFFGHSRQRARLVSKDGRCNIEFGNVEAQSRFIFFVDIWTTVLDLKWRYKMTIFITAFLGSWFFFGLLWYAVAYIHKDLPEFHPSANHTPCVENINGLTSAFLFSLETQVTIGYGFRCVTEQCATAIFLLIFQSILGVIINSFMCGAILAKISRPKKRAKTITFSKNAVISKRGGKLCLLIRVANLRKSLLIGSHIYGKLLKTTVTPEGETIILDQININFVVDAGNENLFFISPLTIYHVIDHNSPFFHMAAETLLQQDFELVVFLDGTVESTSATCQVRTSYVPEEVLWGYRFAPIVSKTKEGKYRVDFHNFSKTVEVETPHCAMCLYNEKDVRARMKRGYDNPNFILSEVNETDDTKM

Row | Compound | IC50
1 | Cc1c([C@@H](O)CN2CCC3(CC2)CN(c2ccc(C#N)cn2)C3)ccc2c1COC2=O [Example 45, (R)-6-(7-(2-Hydroxy-2-(4-methyl-1-oxo-1,3-dihydroisobenzofuran-5-yl)ethyl)-2,7-diazaspiro[3.5]nonan-2-yl)nicotinonitrile] | 104 nM
2 | Cc1c([C@@H](O)CN2CCC3(CC2)CN(c2ccc(S(C)(=O)=O)cn2)C3)ccc2c1COC2=O [Example 47, (R)-5-(1-Hydroxy-2-(2-(5-(methylsulfonyl)pyridin-2-yl)-2,7-diazaspiro[3.5]nonan-7-yl)ethyl)-4-methylisobenzofuran-1(3H)-one] | 220 nM
3 | Cc1c([C@@H](O)CN2CCC3(CCN(c4cnc(S(C)(=O)=O)cn4)CC3)C2)ccc2c1COC2=O [Example 65, 5-[(1R)-1-Hydroxy-2-{8-[5-(methylsulfonyl)pyrazin-2-yl]-2,8-diazaspiro[4.5]dec-2-yl}ethyl]-4-methyl-2-benzofuran-1(3H)-one hydrochloride] | 99.8 nM
4 | Cc1c(C(O)CN2CCC3(CC2)CCN(c2nccnc2C#N)CC3)ccc2c1COC2=O (stereo not shown) [Example 110] | 135 nM
5 | COc1cc(N2CC3(CCN(C[C@H](O)c4ccc5c(c4C)COC5=O)CC3)OC2=O)ncc1C#N [Example 95, (R)-6-(8-(2-Hydroxy-2-(4-methyl-1-oxo-1,3-dihydroisobenzofuran-5-yl)ethyl)-2-oxo-1-oxa-3,8-diazaspiro[4.5]decan-3-yl)-4-methoxynicotinonitrile] | 84 nM
6 | Cc1cc(C#N)cnc1N1CCC2(CCN(CC(O)c3ccc4c(c3C)COC4=O)CC2)CC1 (stereo not shown) [Example 108] | 255 nM
7 | Cc1c([C@@H](O)CN2CCC3(CC2)CN(c2ccc(S(C)(=O)=O)nc2)CCO3)ccc2c1COC2=O [Example 99, (R)-5-(1-Hydroxy-2-(4-(6-(methylsulfonyl)pyridin-3-yl)-1-oxa-4,9-diazaspiro[5.5]undecan-9-yl)ethyl)-4-methylisobenzofuran-1(3H)-one] | 168 nM
8 | Cc1c([C@@H](O)CN2CCC3(CC2)CCN(c2cccc(C#N)c2)C3)ccc2c1COC2=O [Example 89] | 118 nM
9 | Cc1c([C@@H](O)CN2CCC3(CC2)CC(=O)N(c2ccc(S(=O)(=O)C4CC4)cc2)C3)ccc2c1COC2=O [Example 70, 2-[4-(Cyclopropylsulfonyl)phenyl]-8-[(2R)-2-hydroxy-2-(4-methyl-1-oxo-1,3-dihydro-2-benzofuran-5-yl)ethyl]-2,8-diazaspiro[4.5]decan-3-one hydrochloride] | 248 nM
10 | Cc1c([C@@H](O)CN2CCC3(CC2)OCCN(c2ccc(S(C)(=O)=O)cn2)C3=O)ccc2c1COC2=O [Example 97, (R)-9-(2-Hydroxy-2-(4-methyl-1-oxo-1,3-dihydroisobenzofuran-5-yl)ethyl)-4-(5-(methylsulfonyl)pyridin-2-yl)-1-oxa-4,9-diazaspiro[5.5]undecan-5-one] | 187 nM
11 | Cc1c([C@@H](O)CN2CCC3(CC2)CN(c2cnc(S(C)(=O)=O)cn2)C(=O)O3)ccc2c1COC2=O [Example 92, (R)-8-(2-Hydroxy-2-(4-methyl-1-oxo-1,3-dihydroisobenzofuran-5-yl)ethyl)-3-(5-(methylsulfonyl)pyrazin-2-yl)-1-oxa-3,8-diazaspiro[4.5]decan-2-one] | 125 nM
12 | Cc1cc(C#N)c(N2CCC3(CCN(CC(O)c4ccc5c(c4C)COC5=O)CC3)CC2)nn1 (stereo not shown) [Example 112] | 161 nM
13 | Cc1c(C(O)CN2CCC3(CC2)CCN(c2ncccc2C#N)CC3)ccc2c1COC2=O (stereo not shown) [Example 107] | 180 nM
14 | Cc1c([C@@H](O)CN2CCC3(CC2)CN(c2ccc(S(C)(=O)=O)cc2)C(=O)O3)ccc2c1COC2=O [Example 94, (R)-8-(2-Hydroxy-2-(4-methyl-1-oxo-1,3-dihydroisobenzofuran-5-yl)ethyl)-3-(4-(methylsulfonyl)phenyl)-1-oxa-3,8-diazaspiro[4.5]decan-2-one] | 159 nM
15 | Cc1c([C@@H](O)CN2CCC3(CC2)CC(=O)N(c2nnc(S(C)(=O)=O)s2)C3)ccc2c1COC2=O [Example 71, 8-[(2R)-2-Hydroxy-2-(4-methyl-1-oxo-1,3-dihydro-2-benzofuran-5-yl)ethyl]-2-[5-(methylsulfonyl)-1,3,4-thiadiazol-2-yl]-2,8-diazaspiro[4.5]decan-3-one hydrochloride] | 142 nM

Compounds with a lower IC50, results first:

Row | IC50 | Compound
16 | 48.7 nM | C[C@H]1Cc2cc(C(O)CN3CCC4(CC3)CN(c3ccc(C#N)cn3)C4)ccc2C(=O)O1 (stereo partly drawn) [Example 52A, 6-(7-(2-Hydroxy-2-((S)-3-methyl-1-oxoisochroman-6-yl)ethyl)-2,7-diazaspiro[3.5]nonan-2-yl)nicotinonitrile]
17 | 71 nM | Cc1c([C@@H](O)CN2CCC3(CC2)CN(c2ccc(S(C)(=O)=O)nn2)C3)ccc2c1COC2=O [Example 48, (R)-5-(1-Hydroxy-2-(2-(6-(methylsulfonyl)pyridazin-3-yl)-2,7-diazaspiro[3.5]nonan-7-yl)ethyl)-4-methylisobenzofuran-1(3H)-one]
18 | 74.2 nM | Cc1c([C@@H](O)CN2CCC3(CC2)CC(=O)N(c2cnc(S(C)(=O)=O)cn2)C3)ccc2c1COC2=O [Example 35, (R)-8-(2Hydroxy-2-(4-methyl-1-oxo-1,3-dihydroisobenzofuran-5-yl)ethyl)-2-(5-(methylsulfonyl)pyrazin-2-yl)-2,8-diazaspiro[4.5]decan-3-one]
19 | 42.4 nM | COc1cc(N2CC3(CCN(C[C@H](O)c4ccc5c(c4C)COC5=O)CC3)C2)ncc1C#N [Example 50, (R)-6-(7-(2-hydroxy-2-(4-methyl-1-oxo-1,3-dihydroisobenzofuran-5-yl)ethyl)-2,7-diazaspiro[3.5]nonan-2-yl)-4-methoxynicotinonitrile]
20 | 21.5 nM | COc1cc(N2CCC3(CCN(C[C@H](O)c4ccc5c(c4C)COC5=O)CC3)C2)ncc1C#N [Example 7, (R)-6-(8-(2-Hydroxy-2-(4-methyl-1-oxo-1,3-dihydroisobenzofuran-5-yl)ethyl)-2,8-diazaspiro[4.5]decan-2-yl)-4-methoxynicotinonitrile]
21 | 59.2 nM | Cc1c([C@@H](O)CN2CCC3(CC2)CCN(c2ccc(S(C)(=O)=O)nn2)C3=O)ccc2c1COC2=O [Example 57, (R)-8-(2-Hydroxy-2-(4-methyl-1-oxo-1,3-dihydroisobenzofuran-5-yl)ethyl)-2-(6-(methylsulfonyl)pyridazin-3-yl)-2,8-diazaspiro[4.5]decan-1-one]
22 | 39.6 nM | Cc1c([C@@H](O)CN2CCC3(CC2)CN(c2ccc(C#N)cn2)CCO3)ccc2c1COC2=O [Example 101, (R)-6-(9-(2-Hydroxy-2-(4-methyl-1-oxo-1,3-dihydroisobenzofuran-5-yl)ethyl)-1-oxa-4,9-diazaspiro[5.5]undecan-4-yl)nicotinonitrile]
23 | 14.1 nM | Cc1c([C@@H](N)CN2CCC3(CC2)CCN(c2ccc(C#N)cn2)C3)ccc2c1COC2=O [Example 79, (R)-6-(8-(2-amino-2-(4-methyl-1-oxo-1,3-dihydroisobenzofuran-5-yl)ethyl)-2,8-diazaspiro[4.5]decan-2-yl)nicotinonitrile]
24 | 70.6 nM | C=CCN[C@@H](CN1CCC2(CC1)CCN(c1ccc(C#N)cn1)C2)c1ccc2c(c1C)COC2=O [Example 78, (R)-6-(8-(2-(allylamino)-2-(4-methyl-1-oxo-1,3-dihydroisobenzofuran-5-yl)ethyl)-2,8-diazaspiro[4.5]decan-2-yl)nicotinonitrile]
25 | 9.62 nM | Cc1c(C(O)CN2CCC3(CC2)CCN(c2cnc(C#N)cn2)CC3)ccc2c1COC2=O (stereo not shown) [Example 111]
26 | 50.1 nM | CC1Cc2cc(C(O)CN3CCC4(CC3)CCN(c3ccc(C#N)cn3)C4)ccc2C(=O)O1 [Example 21, 6-(8-(2-Hydroxy-2-((R)-3-methyl-1-oxoisochroman-6-yl)ethyl)-2,8-diazaspiro[4.5]decan-2-yl)nicotinonitrile]
27 | 23 nM | Cc1cc2c(cc1C(O)CN1CCC3(CC1)CC(=O)N(c1ccc(C#N)cn1)C3)COC2=O (stereo not shown) [Example 2, 6-(8-(2-hydroxy-2-(6-methyl-1-oxo-1,3-dihydroisobenzofuran-5-yl)ethyl)-3-oxo-2,8-diazaspiro[4.5]decan-2-yl)nicotinonitrile]
28 | 37 nM | Cc1c([C@@H](O)CN2CCC3(CC2)CCN(c2ccc(C#N)cn2)C3=O)ccc2c1COC2=O [Example 5, 6-{8-[(2R)-2-hydroxy-2-(4-methyl-1-oxo-1,3-dihydro-2-benzofuran-5-yl)ethyl]-1-oxo-2,8-diazaspiro[4.5]dec-2-yl}pyridine-3-carbonitrile]

— US9751881B2, “Inhibitors of the renal outer medullary potassium channel” (Merck Sharp & Dohme Corp., priority 2013, dated 2017)
